PMC11881559 (Antimicrobial Agents and Chemotherapy, 2025)

Key:
[1] = Tolerability and safety assessment (AEs/ADRs, CTCAE 5.0); format: in vivo, human
Procedure: Safety and tolerability assessments were conducted for all participants who received at least one dose of RAY1216, either alone or in combination with ritonavir, throughout the study. The safety of all participants was evaluated on the basis of clinical symptoms, vital signs, 12-lead ECG, laboratory tests, physical examinations, and the evaluation of adverse events (AEs). All AEs were documented and graded according to the Common Terminology Criteria for Adverse Events (CTCAE, ver. 5.0). The grading scale was as follows: grade 1 (mild), grade 2 (moderate), grade 3 (severe), grade 4 (life threatening), and grade 5 (death).

[2] = 12-lead ECG QTcF assessment and C-QT model; format: in vivo, human
Procedure: To evaluate the cardiotoxicity of the drug, 12-lead ECG was conducted at several time points: 0 h, 1 h, 2 h, 4 h, 24 h, 48 h, 72 h, and 96 h after dosing in the SAD, food-effect, and DDI studies. In the MAD study, 12-lead ECG data were collected on day 1 (0 h, 1 h, 2 h, 4 h, and 8 h after dosing) and on day 5 (0 h, 1 h, 2 h, 4 h, 24 h, 48 h, 72 h, and 96 h after dosing), as well as before dosing and 2 h after dosing on days 2–4. Three consecutive ECGs were performed at each of these time points. The QT interval was corrected using the Fridericia formula [QTcF = QT / (RR^0.33), where RR = 60/heart rate]. Descriptive statistics were applied to the number of participants with abnormal changes in QTcF after dosing compared to baseline, including: (i) absolute value of QTcF >450 ms; (ii) absolute value of QTcF >500 ms; (iii) 30 ms < ΔQTcF ≤ 60 ms; (iv) ΔQTcF >60 ms (ΔQTcF = QTcF after dosing − baseline).

[3] = Food effect, 800 mg, Fast (N = 12)
[4] = Food effect, 800 mg, Fed (N = 12)

O=C(NC1CCCC1)C(=O)[C@H](C[C@@H]1CCNC1=O)NC(=O)[C@@H]1[C@H]2CCC[C@H]2CN1C(=O)[C@@H](NC(=O)C(F)(F)F)C1CCCCC1 [RAY1216, leritrelvir]
participants who experienced at least one adverse event (AE) ([1]; 37 of all 88 participants (RAY1216 or placebo)): 42%
ADR, n (%) [1, 3]: 2 (16.7) n (%)
AE, n (%) [1, 3]: 3 (25.0) n (%)
ALT elevated (ADR) [1, 3]: 0 n (%)
AST elevated (ADR) [1, 3]: 0 n (%)
Anemia (ADR) [1, 3]: 0 n (%)
Bilirubin elevated (ADR) [1, 3]: 0 n (%)
Diarrhea (ADR) [1, 3]: 0 n (%)
Fatigue (ADR) [1, 3]: 0 n (%)
Grade 2 ADRs [1, 3]: 1 (8.3) n (%)
Grade ≥3 AEs [1, 3]: 0 n (%)
Hypertriglyceridemia (ADR) [1, 3]: 0 n (%)
Hyperuricemia (ADR) [1, 3]: 0 n (%)
Leukopenia (ADR) [1, 3]: 1 (8.3) n (%)
Nausea (ADR) [1, 3]: 0 n (%)
Neutrophil decreased (ADR) [1, 3]: 1 (8.3) n (%)
Palpitations (ADR) [1, 3]: 0 n (%)
Serum creatinine elevated (ADR) [1, 3]: 0 n (%)
ADR, n (%) [1, 4]: 4 (33.3) n (%)
AE, n (%) [1, 4]: 5 (41.7) n (%)
ALT elevated (ADR) [1, 4]: 0 n (%)
AST elevated (ADR) [1, 4]: 0 n (%)
Anemia (ADR) [1, 4]: 0 n (%)
Bilirubin elevated (ADR) [1, 4]: 0 n (%)
Diarrhea (ADR) [1, 4]: 0 n (%)
Fatigue (ADR) [1, 4]: 0 n (%)
Grade 2 ADRs [1, 4]: 1 (8.3) n (%)
Grade ≥3 AEs [1, 4]: 0 n (%)
Hypertriglyceridemia (ADR) [1, 4]: 1 (8.3) n (%)
Hyperuricemia (ADR) [1, 4]: 0 n (%)
Leukopenia (ADR) [1, 4]: 0 n (%)
Nausea (ADR) [1, 4]: 0 n (%)
Neutrophil decreased (ADR) [1, 4]: 0 n (%)
Palpitations (ADR) [1, 4]: 0 n (%)
Serum creatinine elevated (ADR) [1, 4]: 2 (16.7) n (%)
participants reporting at least one ADR ([1]; MAD study with or without ritonavir, 9 out of 32 participants): 28.1%
ADR, n (%) ([1]; MAD, 400 mg TID (N = 6)): 2 (33.3) n (%)
AE, n (%) ([1]; MAD, 400 mg TID (N = 6)): 2 (33.3) n (%)
ALT elevated (ADR) ([1]; MAD, 400 mg TID (N = 6)): 0 n (%)
AST elevated (ADR) ([1]; MAD, 400 mg TID (N = 6)): 0 n (%)
Anemia (ADR) ([1]; MAD, 400 mg TID (N = 6)): 0 n (%)
Bilirubin elevated (ADR) ([1]; MAD, 400 mg TID (N = 6)): 0 n (%)
Diarrhea (ADR) ([1]; MAD, 400 mg TID (N = 6)): 0 n (%)
Fatigue (ADR) ([1]; MAD, 400 mg TID (N = 6)): 0 n (%)
Grade 2 ADRs ([1]; MAD, 400 mg TID (N = 6)): 0 n (%)
Grade ≥3 AEs ([1]; MAD, 400 mg TID (N = 6)): 0 n (%)
Hypertriglyceridemia (ADR) ([1]; MAD, 400 mg TID (N = 6)): 1 (16.7) n (%)
Hyperuricemia (ADR) ([1]; MAD, 400 mg TID (N = 6)): 0 n (%)
Leukopenia (ADR) ([1]; MAD, 400 mg TID (N = 6)): 0 n (%)
Nausea (ADR) ([1]; MAD, 400 mg TID (N = 6)): 0 n (%)
Neutrophil decreased (ADR) ([1]; MAD, 400 mg TID (N = 6)): 0 n (%)
Palpitations (ADR) ([1]; MAD, 400 mg TID (N = 6)): 0 n (%)
Serum creatinine elevated (ADR) ([1]; MAD, 400 mg TID (N = 6)): 0 n (%)
participants reporting at least one ADR ([1]; MAD, 400 mg TID group, two participants): 33.3%
participants reporting at least one ADR ([1]; SAD, 200 mg cohort, two participants): 33.3%
ADR, n (%) ([1]; SAD, 400 mg (N = 6)): 2 (33.3) n (%)
AE, n (%) ([1]; SAD, 400 mg (N = 6)): 2 (33.3) n (%)
ALT elevated (ADR) ([1]; SAD, 400 mg (N = 6)): 0 n (%)
AST elevated (ADR) ([1]; SAD, 400 mg (N = 6)): 0 n (%)
Anemia (ADR) ([1]; SAD, 400 mg (N = 6)): 0 n (%)
Bilirubin elevated (ADR) ([1]; SAD, 400 mg (N = 6)): 1 (16.7) n (%)
Diarrhea (ADR) ([1]; SAD, 400 mg (N = 6)): 0 n (%)
Fatigue (ADR) ([1]; SAD, 400 mg (N = 6)): 0 n (%)
Grade 2 ADRs ([1]; SAD, 400 mg (N = 6)): 0 n (%)
Grade ≥3 AEs ([1]; SAD, 400 mg (N = 6)): 0 n (%)
Hypertriglyceridemia (ADR) ([1]; SAD, 400 mg (N = 6)): 0 n (%)
Hyperuricemia (ADR) ([1]; SAD, 400 mg (N = 6)): 0 n (%)
Leukopenia (ADR) ([1]; SAD, 400 mg (N = 6)): 0 n (%)
Nausea (ADR) ([1]; SAD, 400 mg (N = 6)): 0 n (%)
Neutrophil decreased (ADR) ([1]; SAD, 400 mg (N = 6)): 0 n (%)
Palpitations (ADR) ([1]; SAD, 400 mg (N = 6)): 0 n (%)
Serum creatinine elevated (ADR) ([1]; SAD, 400 mg (N = 6)): 1 (16.7) n (%)
participants reporting at least one ADR ([1]; SAD, 400 mg cohort, two participants): 33.3%
ADR, n (%) ([1]; SAD, 800 mg (N = 6)): 0 n (%)
AE, n (%) ([1]; SAD, 800 mg (N = 6)): 1 (16.7) n (%)
ALT elevated (ADR) ([1]; SAD, 800 mg (N = 6)): 0 n (%)
AST elevated (ADR) ([1]; SAD, 800 mg (N = 6)): 0 n (%)
Anemia (ADR) ([1]; SAD, 800 mg (N = 6)): 0 n (%)
Bilirubin elevated (ADR) ([1]; SAD, 800 mg (N = 6)): 0 n (%)
Diarrhea (ADR) ([1]; SAD, 800 mg (N = 6)): 0 n (%)
Fatigue (ADR) ([1]; SAD, 800 mg (N = 6)): 0 n (%)
Grade 2 ADRs ([1]; SAD, 800 mg (N = 6)): 0 n (%)
Grade ≥3 AEs ([1]; SAD, 800 mg (N = 6)): 0 n (%)
Hypertriglyceridemia (ADR) ([1]; SAD, 800 mg (N = 6)): 0 n (%)
Hyperuricemia (ADR) ([1]; SAD, 800 mg (N = 6)): 0 n (%)
Leukopenia (ADR) ([1]; SAD, 800 mg (N = 6)): 0 n (%)
Nausea (ADR) ([1]; SAD, 800 mg (N = 6)): 0 n (%)
Neutrophil decreased (ADR) ([1]; SAD, 800 mg (N = 6)): 0 n (%)
Palpitations (ADR) ([1]; SAD, 800 mg (N = 6)): 0 n (%)
Serum creatinine elevated (ADR) ([1]; SAD, 800 mg (N = 6)): 0 n (%)
ADR, n (%) ([1]; SAD, 1,600 mg (N = 6)): 2 (33.3) n (%)
AE, n (%) ([1]; SAD, 1,600 mg (N = 6)): 2 (33.3) n (%)
ALT elevated (ADR) ([1]; SAD, 1,600 mg (N = 6)): 0 n (%)
AST elevated (ADR) ([1]; SAD, 1,600 mg (N = 6)): 0 n (%)
Anemia (ADR) ([1]; SAD, 1,600 mg (N = 6)): 0 n (%)
Bilirubin elevated (ADR) ([1]; SAD, 1,600 mg (N = 6)): 1 (16.7) n (%)
Diarrhea (ADR) ([1]; SAD, 1,600 mg (N = 6)): 0 n (%)
Fatigue (ADR) ([1]; SAD, 1,600 mg (N = 6)): 0 n (%)
Grade 2 ADRs ([1]; SAD, 1,600 mg (N = 6)): 0 (0.0) n (%)
Grade ≥3 AEs ([1]; SAD, 1,600 mg (N = 6)): 0 n (%)
Hypertriglyceridemia (ADR) ([1]; SAD, 1,600 mg (N = 6)): 1 (16.7) n (%)
Hyperuricemia (ADR) ([1]; SAD, 1,600 mg (N = 6)): 1 (16.7) n (%)
Leukopenia (ADR) ([1]; SAD, 1,600 mg (N = 6)): 0 n (%)
Nausea (ADR) ([1]; SAD, 1,600 mg (N = 6)): 0 n (%)
Neutrophil decreased (ADR) ([1]; SAD, 1,600 mg (N = 6)): 0 n (%)
Palpitations (ADR) ([1]; SAD, 1,600 mg (N = 6)): 0 n (%)
Serum creatinine elevated (ADR) ([1]; SAD, 1,600 mg (N = 6)): 0 n (%)
participants reporting at least one ADR ([1]; SAD, 1,600 mg cohort, two participants): 33.3%
participants reporting at least one ADR ([1]; SAD, 6 out of 32 participants): 18.8%
ADR, n (%) ([1]; SAD/DDI, 200 mg (N = 6)): 2 (33.3) n (%)
AE, n (%) ([1]; SAD/DDI, 200 mg (N = 6)): 2 (33.3) n (%)
ALT elevated (ADR) ([1]; SAD/DDI, 200 mg (N = 6)): 0 n (%)
AST elevated (ADR) ([1]; SAD/DDI, 200 mg (N = 6)): 0 n (%)
Anemia (ADR) ([1]; SAD/DDI, 200 mg (N = 6)): 0 n (%)
Bilirubin elevated (ADR) ([1]; SAD/DDI, 200 mg (N = 6)): 0 n (%)
Diarrhea (ADR) ([1]; SAD/DDI, 200 mg (N = 6)): 0 n (%)
Fatigue (ADR) ([1]; SAD/DDI, 200 mg (N = 6)): 0 n (%)
Grade 2 ADRs ([1]; SAD/DDI, 200 mg (N = 6)): 1 (16.7) n (%)
Grade ≥3 AEs ([1]; SAD/DDI, 200 mg (N = 6)): 0 n (%)
Hypertriglyceridemia (ADR) ([1]; SAD/DDI, 200 mg (N = 6)): 2 (33.3) n (%)
Hyperuricemia (ADR) ([1]; SAD/DDI, 200 mg (N = 6)): 0 n (%)
Leukopenia (ADR) ([1]; SAD/DDI, 200 mg (N = 6)): 0 n (%)
Nausea (ADR) ([1]; SAD/DDI, 200 mg (N = 6)): 0 n (%)
Neutrophil decreased (ADR) ([1]; SAD/DDI, 200 mg (N = 6)): 0 n (%)
Palpitations (ADR) ([1]; SAD/DDI, 200 mg (N = 6)): 0 n (%)
Serum creatinine elevated (ADR) ([1]; SAD/DDI, 200 mg (N = 6)): 0 n (%)
grade 3 or above AEs, withdrawal due to AEs, SAEs ([1]; all cohorts): No grade 3 or above AEs, participant withdrawal due to AEs, or SAEs occurred
participants reporting at least one ADR ([1]; food-effect study, RAY1216 alone, 5 out of 12 participants): 41.7%
participants reporting at least one ADR ([1]; food-effect study, RAY1216 alone, after meals, 4 out of 12): 33.3%
participants reporting at least one ADR ([1]; food-effect study, RAY1216 alone, fasting, 2 out of 12): 16.7%
participants with absolute value of QTcF exceeding 450 ms ([2]; 700 mg combined with ritonavir BID group): one
mean ΔΔQTcF ([2]; 700 mg combined with ritonavir BID, at average Cmax 9280 ng/mL, C-QT model, 90% CI: −1.6526–7.0164): 2.6819 ms
correlation between drug concentration and the QT interval ([2]; C-QT model analysis): no significant correlation
participants exceeding a ΔQTcF of 60 ms ([2]; all cohorts): no participants
upper limit of the 90% CI for the average ΔΔQTcF ([2]; at the average Cmax concentration in each cohort, C-QT model predicted): less than 10 ms
